Reference: US4113766A, “Oxaprostaglandins” (Pfizer Inc., priority 1975, dated 1978)

What was measured:
estrogenized rat uterus = assay: spasmogenic effect on estrogenized rat uterus in vitro; format: tissue-based; settings: in words; rat uterus vs guinea pig ileum, Table I
Text: (§1) These tests include, among others, a test for effect on isolated smooth muscle from guinea pig ileum and rat uterus, a test for effect on histamine induced bronchospasm in guinea pig, a test for effects on dog blood pressure, a test for induction of diarrhea in mice, and a test for the induction of abortion in early pregnant rats.
^(c) Threshold dose for spasmogenic effect on estrogenized rat uterus

early pregnant rat = assay: induction of abortion in early pregnant rats; format: in vivo
Text: as §1
On the basis of the difference seen in the rat uterus and guinea pig ileum tests with 19-oxaprostaglandin E2, one would expect to have a reduction of the unpleasant gastrointestinal side effects which were encountered when natural PGE2 was employed as an abortion inducer (Lancet, 536, 1971).

[1] = test system: histamine induced bronchospasm; assay: protection by aerosol against histamine induced bronchospasm in guinea pig; format: in vivo; settings: in words, from Table I
Procedure: as §1
^(b) Per cent protection by 100 μg/ml aerosol dose for histamine
induced bronchospasm in the guinea pig.

## COCCC[C@H](O)/C=C/[C@H]1[C@H](O)CC(=O)[C@@H]1C/C=C\CCCC(=O)O [19-oxa PGE2, 9-oxo-11α,15α-dihydroxy-19-oxa-cis-5-trans-13-prostadienoic acid]
Estrogenized rat uterus
  tissue selectivity: advantage of tissue selectivity
Early pregnant rat
  effectiveness relative to natural PGE2 in inducing abortion: as effective as natural PGE2

## CCOCCC[C@H](O)/C=C/[C@H]1[C@H](O)CC(=O)[C@@H]1C/C=C\CCCC(=O)O [19-oxa-ω-homo-PGE2, 9-oxo-11α,15α-dihydroxy-19-oxa-cis-5-trans-13-w-homo-prostadienoic acid]
[1]
  bronchodilator selectivity versus natural PGE2: more selective bronchodilator than natural PGE2
